molecular target: Recombinant p62 protein (Homo sapiens, UniProt Q13501); assay: Surface plasmon resonance (SPR) compound binding to p62; conditions: 15° C
Sequence (Q13501 whole entry, species assumed): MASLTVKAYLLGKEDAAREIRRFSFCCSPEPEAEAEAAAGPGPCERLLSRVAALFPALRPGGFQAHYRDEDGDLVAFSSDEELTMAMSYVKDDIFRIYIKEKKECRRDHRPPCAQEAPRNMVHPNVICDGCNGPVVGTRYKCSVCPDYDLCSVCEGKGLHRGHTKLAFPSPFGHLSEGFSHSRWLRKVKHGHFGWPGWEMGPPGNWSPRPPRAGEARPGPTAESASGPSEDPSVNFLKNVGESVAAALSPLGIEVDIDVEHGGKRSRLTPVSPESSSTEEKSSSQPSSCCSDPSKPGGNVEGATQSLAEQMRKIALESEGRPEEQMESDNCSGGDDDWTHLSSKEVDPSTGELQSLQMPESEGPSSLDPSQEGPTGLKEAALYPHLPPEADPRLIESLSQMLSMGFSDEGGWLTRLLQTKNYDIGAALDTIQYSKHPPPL

`OCCNCc1cccc2c1ccn2Cc1ccccc1` [Compound 1, 2-(((1-benzyl-1H-indol-4-yl)methyl)amino)ethan-1-ol] and `OCCNCc1cc(F)cc2c1ccn2Cc1ccc(Cl)cc1` [Compound 45, 2-(((1-(4-chlorobenzyl)-6-fluoro-1H-indol-4-yl)methyl)amino)ethan-1-ol] fall in the same range of receptor occupancy at 100 µM: 30 to 70% for the first, 30 to 70% for the second.

For `OCCNCc1cc(F)cc2c1ccn2Cc1ccc(F)cc1` [Compound 44], the receptor occupancy at 100 µM was > 70%.

Reference: patent US20250243160A1, “INDOLE DERIVATIVES FOR TARGETING AUTOPHAGY” (Automera PTE. LTD, priority 2024, published 2025)
